Test results published in the NIST ThermoML archive (doi:10.1016/j.jct.2016.07.041).
Numbers after ± are expanded uncertainties.

Legend:
[1] = xn = mol fraction of the nth substance listed; details: 101 kPa, Liquid, x1 = 1; for viscosity: Capillary tube (Ostwald / Ubbelohde) method; for mass density: Vibrating tube method
[2] = 101.33 kPa, Liquid; for viscosity: Capillary tube (Ostwald / Ubbelohde) method; for mass density: Vibrating tube method

With `CCCCn1cc[n+](C)c1.F[B-](F)(F)F` [1-butyl-3-methylimidazolium tetrafluoroborate] + NCCO the viscosity ([1]; 293.15 K) was 139.12 ± 8.7 mPa·s, the mass density ([1]; 293.15 K) was 1205.1 ± 1.2 kg/m3 and the viscosity ([1]; 303.15 K) was 82.49 ± 5 mPa·s. The mass density ([1]; 303.15 K) was 1198 ± 1.2 kg/m3, the viscosity ([1]; 313.15 K) was 52.33 ± 3.1 mPa·s and the mass density ([1]; 313.15 K) was 1190.8 ± 1.2 kg/m3. It also gave a viscosity ([1]; 323.15 K) of 35.16 ± 2.1 mPa·s, a mass density ([1]; 323.15 K) of 1183.7 ± 1.2 kg/m3 and a viscosity ([1]; 333.15 K) of 24.69 ± 1.5 mPa·s. It also gave a mass density ([1]; 333.15 K) of 1176.8 ± 1.2 kg/m3.

With `CCCCn1cc[n+](C)c1.F[B-](F)(F)F` [1-butyl-3-methylimidazolium tetrafluoroborate] the viscosity ([2]; 293.15 K) was 139.12 ± 8.7 mPa·s, the mass density ([2]; 293.15 K) was 1205.1 ± 1.2 kg/m3 and the viscosity ([2]; 303.15 K) was 82.49 ± 5 mPa·s. For the same compound, the mass density ([2]; 303.15 K) was 1198 ± 1.2 kg/m3, the viscosity ([2]; 313.15 K) was 52.33 ± 3.1 mPa·s and the mass density ([2]; 313.15 K) was 1190.8 ± 1.2 kg/m3. It also gave a viscosity ([2]; 323.15 K) of 35.16 ± 2.1 mPa·s, a mass density ([2]; 323.15 K) of 1183.7 ± 1.2 kg/m3 and a viscosity ([2]; 333.15 K) of 24.69 ± 1.5 mPa·s. It also gave a mass density ([2]; 333.15 K) of 1176.8 ± 1.2 kg/m3.

In the case of `NCCO` [2-aminoethan-1-ol], the viscosity ([2]; 293.15 K) is reported as 23.65 ± 1.4 mPa·s, the mass density ([2]; 293.15 K) is reported as 1015.5 ± 1 kg/m3 and the viscosity ([2]; 303.15 K) is reported as 14.75 ± 0.89 mPa·s. The mass density ([2]; 303.15 K) was 1007.6 ± 1 kg/m3, the viscosity ([2]; 313.15 K) was 9.78 ± 0.59 mPa·s and the mass density ([2]; 313.15 K) was 999.7 ± 1 kg/m3. The viscosity ([2]; 323.15 K) was 6.81 ± 0.41 mPa·s, the mass density ([2]; 323.15 K) was 991.7 ± 1 kg/m3 and the viscosity ([2]; 333.15 K) was 4.99 ± 0.3 mPa·s. The mass density ([2]; 333.15 K) was 983.6 ± 1 kg/m3.
